Experimental data reported in patent US20090062243A1, “Lupane-Type Triterpenoids Modified at 30-Position and Analogues Thereof” (ADVANCED LIFE SCIENCES, INC., priority 2007, published 2009).

What was measured:
Type in all cases: cell-based
[1] = tested on: A-375 (melanoma); assay: MTS cell viability assay, A-375
Experimental: (§1) Cells were plated, the evening before treatment, for each treatment on 96-well plates (1×10^4 cells/well) in 100 μL volume per well. Analog solutions were prepared by diluting each test compound in DSMO (10 mM) with the appropriate cell growth media for each individual cell line, or in “Universal Media” if several cell lines were to be assayed in parallel, immediately prior to cell treatment. Universal Media consisted of 5 mL sodium pyruvate (100× liquid stock, MediaTech), 5 mL glucose (100×, 45% liquid stock, MediaTech), 5 mL Penicillin/Streptomycin (100× liquid stock, MediaTech), 10 mL sodium bicarbonate (50× liquid stock, MediaTech), 25 mL Fetal Calf Serum, 1.25 mL insulin (4 mg/mL, Gibco) and […] RPMI media with 2 mM L-glutamine for a total volume of 500 mL.
(§2) Cells were treated by aspirating plating media from each well and adding 80 μL of betulinic acid (control) or each analog solution in serial dilutions to the adherent cells. All treatments were performed in triplicate. Growth media (80 μL) was added to 3 blank wells (no cells) to measure background from the growth media. Growth media alone (no DMSO or test compound) was added to 3 wells containing cells to measure the baseline MTS activity. Vehicle (DMSO) control in serial dilutions, added to cells, was also included to monitor basal toxicity from DMSO. Cells were incubated at 37° C. for 72 h, or 120 h for the OVCAR cell lines. MTS reagent (per 96-well plate) were prepared by combining 2 mL of MTS working solution (Cell Titer AQueous Non-Radioactive Cell Proliferation Assay, Promega, cat#G1112), 100 μL of 0.92 mg/mL phenazine methosulfate/Dulbecco's PBS and 2.1 mL growth media. MTS reagent (40 μL) were added to each well and incubated at 37° C. for 1.5 to 4 h. Plates were gently shaken by hand until solution in each well appeared homogenous. Absorbances at 490 nm were measured on a Wallac Victor II plate reader at multiple time points following the addition of MTS reagent for each plate. Triplicate absorbance (490 nm) measurements were averaged following background (no cell) subtraction for each drug concentration. Percent Cell Viability was calculated for each drug concentration using the following equation:
(§3) {[Absorbance(analog treated)]/[Absorbance(DMSO treated)]}×100%
(§4) Cytotoxicity dose response for the triterpenoid derivatives synthesized in SK-MEL-2 (melanoma), A-375 (melanoma), Daoy (glioblastoma), LN-229 (glioblastoma), OVCAR-3 (ovarian carcinoma), HT-29 (colon carcinoma), MCF-7 (breast carcinoma) cell lines using the standard MTS assay is summarized in Table 1. In Table 1, compounds 22a-d and compounds 23a-c refer to structures 22 and 23 in Scheme 5, respectively. Compounds 24aa-an and 24ba-bq refer to structure 24 in Scheme 6. Compounds 26a-e refer to structure 26 in Scheme 6. Compounds 36a-c refer to structure 36 in Scheme 10.

[2] = tested on: HT-29 (colon carcinoma); assay: MTS cell viability assay, HT-29
Experimental: as §1, §2, §3, §4

[3] = tested on: SK-MEL-2 (melanoma); assay: MTS cell viability assay, SK-MEL-2
Experimental: as §1, §2, §3, §4

[4] = tested on: MCF-7 (breast carcinoma); assay: MTS cell viability assay, MCF-7
Experimental: as §1, §2, §3, §4

[5] = tested on: Daoy; assay: MTS cell viability assay, Daoy; conditions: cells incubated 72 h
Experimental: as §1, §2, §3, §4

[6] = tested on: LN-229 (glioblastoma); assay: MTS cell viability assay, LN-229
Experimental: as §1, §2, §3, §4

[7] = Homo sapiens, SK-MEL-2, cells incubated 72 h
[8] = Homo sapiens, A-375, cells incubated 72 h
[9] = Homo sapiens, HT-29, cells incubated 72 h
[10] = Homo sapiens, MCF7, cells incubated 72 h
[11] = Homo sapiens, LN-229, cells incubated 72 h

Row | Compound | IC50 ([3]; cells incubated 72 h) [µM] | IC50 [5] [µM] | IC50 [3, 7] [µM] | IC50 ([5]; Homo sapiens, Daoy) [µM] | further results
1 | C=C(CNCCO)[C@@H]1CC[C@]2(CO)CC[C@]3(C)[C@H](CC[C@@H]4[C@@]5(C)CCC(NCCc6ccc(O)cc6)C(C)(C)[C@@H]5CC[C@]43C)[C@@H]12 (some centres unmarked) [Compound 24bf] | 5 | 1 |  |  | IC50 ([1]; cells incubated 72 h): 2 µM; IC50 ([2]; cells incubated 72 h): < 2 µM; IC50 ([4]; cells incubated 72 h): 4 µM; IC50 ([6]; cells incubated 72 h): 14 µM
2 | C=C(CO)[C@@H]1CC[C@]2(C=O)CC[C@]3(C)[C@H](CC[C@@H]4[C@@]5(C)CCC(=O)C(C)(C)[C@@H]5CC[C@]43C)[C@@H]12 [Compound 18b] |  |  | > 75 | > 75 | 
3 | C=C(CNCCO)[C@@H]1CC[C@]2(CO)CC[C@]3(C)[C@H](CC[C@@H]4[C@@]5(C)CCC(NC6CCC(O)CC6)C(C)(C)[C@@H]5CC[C@]43C)[C@@H]12 (some centres unmarked) [Compound 24bj] | 5 | 5 |  |  | IC50 ([1]; cells incubated 72 h): 7 µM; IC50 ([2]; cells incubated 72 h): 2 µM; IC50 ([4]; cells incubated 72 h): 4 µM; IC50 ([6]; cells incubated 72 h): 16 µM
4 | C=C(CNCCO)[C@@H]1CC[C@]2(COC3CCCCO3)CC[C@]3(C)[C@H](CC[C@@H]4[C@@]5(C)CCC(NCCc6ccc(O)cc6)C(C)(C)[C@@H]5CC[C@]43C)[C@@H]12 (some centres unmarked) [Compound 24be] | 2 | 0.5 |  |  | IC50 ([1]; cells incubated 72 h): < 2 µM; IC50 ([2]; cells incubated 72 h): < 2 µM; IC50 ([4]; cells incubated 72 h): 5 µM; IC50 ([6]; cells incubated 72 h): 18 µM
5 | C=C(CO)[C@@H]1CC[C@]2(COC(C)=O)CC[C@]3(C)[C@H](CC[C@@H]4[C@@]5(C)CCC(=O)C(C)(C)[C@@H]5CC[C@]43C)[C@@H]12 [Compound 12] |  |  | > 45 | > 45 | 
6 | C=C(CNCCO)[C@@H]1CC[C@]2(COC3CCCCO3)CC[C@]3(C)[C@H](CC[C@@H]4[C@@]5(C)CCC(O)C(C)(C)[C@@H]5CC[C@]43C)[C@@H]12 (some centres unmarked) [Compound 23a] |  |  | 16 | 54 | 
7 | C=C(CNCCO)[C@@H]1CC[C@]2(COC3CCCCO3)CC[C@]3(C)[C@H](CC[C@@H]4[C@@]5(C)CCC(N)C(C)(C)[C@@H]5CC[C@]43C)[C@@H]12 (some centres unmarked) [Compound 24ba] |  |  | 5 | 5 | IC50 [1, 8]: 3 µM; IC50 [2, 9]: 2 µM; IC50 [4, 10]: 3 µM; IC50 [6, 11]: 15 µM
8 | CC(CNCCO)[C@@H]1CC[C@]2(COC3CCCCO3)CC[C@]3(C)[C@H](CC[C@@H]4[C@@]5(C)CCC(O)C(C)(C)[C@@H]5CC[C@]43C)[C@@H]12 (some centres unmarked) [Compound 36a] |  |  | 4 | 4 | IC50 [1, 8]: 5 µM; IC50 [2, 9]: 5 µM; IC50 [4, 10]: 7 µM; IC50 [6, 11]: 28 µM
9 | C=C(C(=O)O)[C@@H]1CC[C@]2(CO)CC[C@]3(C)[C@H](CC[C@@H]4[C@@]5(C)CCC(=O)C(C)(C)[C@@H]5CC[C@]43C)[C@@H]12 [Compound 13b] |  |  | > 75 | > 75 | 
10 | C=C(CO)[C@@H]1CC[C@]2(COC3CCCCO3)CC[C@]3(C)[C@H](CC[C@@H]4[C@@]5(C)CCC(NC6CCC(O)CC6)C(C)(C)[C@@H]5CC[C@]43C)[C@@H]12 (some centres unmarked) [Compound 24ak] | 38 | 38 |  |  | 
11 | C=C(C(=O)O)[C@@H]1CC[C@]2(CO)CC[C@]3(C)[C@H](CC[C@@H]4[C@@]5(C)CC[C@H](O)C(C)(C)[C@@H]5CC[C@]43C)[C@@H]12 [Compound 15] |  |  | > 75 | > 75 | 
12 | C=C(CNCCO)[C@@H]1CC[C@]2(COC3CCCCO3)CC[C@]3(C)[C@H](CC[C@@H]4[C@@]5(C)CCC(NC6CCC(O)CC6)C(C)(C)[C@@H]5CC[C@]43C)[C@@H]12 (some centres unmarked) [Compound 24bi] | 5 | 5 |  |  | 
13 | CC(CNCCO)[C@@H]1CC[C@]2(CO)CC[C@]3(C)[C@H](CC[C@@H]4[C@@]5(C)CCC(O)C(C)(C)[C@@H]5CC[C@]43C)[C@@H]12 (some centres unmarked) [Compound 36b] |  |  | 16 | 54 | 
14 | C=C(COC(C)=O)[C@@H]1CC[C@]2(CO)CC[C@]3(C)[C@H](CC[C@@H]4[C@@]5(C)CCC(=O)C(C)(C)[C@@H]5CC[C@]43C)[C@@H]12 [Compound 16] |  |  | 43 | > 45 | 
15 | C=C(COC(C)=O)[C@@H]1CC[C@]2(C(=O)O)CC[C@]3(C)[C@H](CC[C@@H]4[C@@]5(C)CC[C@H](O)C(C)(C)[C@@H]5CC[C@]43C)[C@@H]12 [Compound 19a] |  |  | > 45 | > 45 | 
